The test has as its system MV-4-11 cells. Briefly: Gene expression microarray analysis (Affymetrix PrimeView) and GSEA. It counts as cell-based, human. Details: RFU PODN (11730768_x_at) / Fold change /veh PODN (11730768_x_at) / RFU LINC00158 (11744669_a_at) / Fold change /veh LINC00158 (11744669_a_at) / RFU DUSP10 (11751237_a_at) / Fold change /veh DUSP10 (11751237_a_at) / RFU ID3 (11757404_x_at) / Fold change /veh ID3 (11757404_x_at) / RFU PLEKHG5 (11737974_s_at) / Fold change /veh PLEKHG5 (11737974_s_at) / RFU LRRC4B (11730491_at) / Fold change /veh LRRC4B (11730491_at) / RFU GIMAP4 (11747438_a_at) / Fold change /veh GIMAP4 (11747438_a_at) / RFU KRT8 (11758183_x_at) / Fold change /veh KRT8 (11758183_x_at) / RFU CNN1 (11734310_a_at) / Fold change /veh CNN1 (11734310_a_at) / RFU VPS37D (11726825_at) / Fold change /veh VPS37D (11726825_at) / RFU C10orf10 (11716522_x_at) / Fold change /veh C10orf10 (11716522_x_at) / RFU KIR2DL2 /// KIR2DL4 /// KIR2DL5A /// KIR2DL5B /// KIR2DS1 /// KIR2DS2 /// KIR2DS3 /// KIR2DS4 /// KIR3DL3 /// KIR3DL3 /// KIR3DS1 (11738374_at) / Fold change /veh KIR2DL2 /// KIR2DL4 /// KIR2DL5A /// KIR2DL5B /// KIR2DS1 /// KIR2DS2 /// KIR2DS3 /// KIR2DS4 /// KIR3DL3 /// KIR3DL3 /// KIR3DS1 (11738374_at) / RFU C1QL1 (11718748_at) / Fold change /veh C1QL1 (11718748_at) / RFU TMPRSS4 (11747572_a_at) / Fold change /veh TMPRSS4 (11747572_a_at) / RFU HAMP (11756126_x_at) / Fold change /veh HAMP (11756126_x_at) / RFU RNFT2 (11725882_a_at) / Fold change /veh RNFT2 (11725882_a_at) / RFU NR4A2 (11747474_a_at) / Fold change /veh NR4A2 (11747474_a_at) / RFU ABCC12 (11746883_a_at) / Fold change /veh ABCC12 (11746883_a_at) / RFU TMEM136 (11760407_x_at) / Fold change /veh TMEM136 (11760407_x_at) / RFU CLDN22 /// WWC2 (11732394_at) / Fold change /veh CLDN22 /// WWC2 (11732394_at) / RFU HLA-DPB1 (11760878_x_at) / Fold change /veh HLA-DPB1 (11760878_x_at) / RFU SPINT1 (11716480_a_at) / Fold change /veh SPINT1 (11716480_a_at) / RFU GAP43 (11754022_s_at) / Fold change /veh GAP43 (11754022_s_at) / RFU A4GNT (11735810_at) / Fold change /veh A4GNT (11735810_at) / RFU PRB3 (11715151_x_at) / Fold change /veh PRB3 (11715151_x_at) / RFU TUBB4B (11761932_at) / Fold change /veh TUBB4B (11761932_at) / RFU CAPN14 (11732068_a_at) / Fold change /veh CAPN14 (11732068_a_at) / RFU TMCC2 (11721928_a_at) / Fold change /veh TMCC2 (11721928_a_at) / RFU IRGQ (11745062_a_at) / Fold change /veh IRGQ (11745062_a_at) / RFU FAM174B (11720279_a_at) / Fold change /veh FAM174B (11720279_a_at) / RFU TMPRSS4 (11748680_a_at) / Fold change /veh TMPRSS4 (11748680_a_at) / RFU FAM212B (11763350_a_at) / Fold change /veh FAM212B (11763350_a_at) / RFU PLEKHG5 (11743358_a_at) / Fold change /veh PLEKHG5 (11743358_a_at) / RFU ZSCAN30 (11745921_a_at) / Fold change /veh ZSCAN30 (11745921_a_at) / RFU CMKLR1 (11741424_a_at) / Fold change /veh CMKLR1 (11741424_a_at) / RFU LOC101060620 /// MAPK8IP1 (11723275_at) / Fold change /veh LOC101060620 /// MAPK8IP1 (11723275_at) / RFU SPTSSB (11747773_x_at) / Fold change /veh SPTSSB (11747773_x_at) / RFU PRSS12 (11739890_at) / Fold change /veh PRSS12 (11739890_at) / RFU BIN1 (11741810_x_at) / Fold change /veh BIN1 (11741810_x_at) / RFU WNT11 (11732464_a_at) / Fold change /veh WNT11 (11732464_a_at) / RFU C10orf10 (11716521_a_at) / Fold change /veh C10orf10 (11716521_a_at) / RFU C5orf56 (11738089_at) / Fold change /veh C5orf56 (11738089_at) / RFU CYB561 (11721691_x_at) / Fold change /veh CYB561 (11721691_x_at) / RFU ANKRD19P (11752326_a_at) / Fold change /veh ANKRD19P (11752326_a_at) / RFU OR2T12 /// OR2T33 /// OR2T8 (11738714_s_at) / Fold change /veh OR2T12 /// OR2T33 /// OR2T8 (11738714_s_at) / RFU VCAN (11748164_a_at) / Fold change /veh VCAN (11748164_a_at) / RFU JSRP1 (11732532_at) / Fold change /veh JSRP1 (11732532_at) / RFU KRTAP10-11 (11738290_x_at) / Fold change /veh KRTAP10-11 (11738290_x_at) / RFU MYO3A (11730013_a_at) / Fold change /veh MYO3A (11730013_a_at) / RFU EBF3 (11725865_a_at) / Fold change /veh EBF3 (11725865_a_at) / RFU CAMK2N1 (11719241_x_at) / Fold change /veh CAMK2N1 (11719241_x_at) / RFU C5orf56 (11738088_a_at) / Fold change /veh C5orf56 (11738088_a_at) / RFU OLFML3 (11715873_a_at) / Fold change /veh OLFML3 (11715873_a_at) / RFU LOC100653217 /// NTM (11731650_a_at) / Fold change /veh LOC100653217 /// NTM (11731650_a_at) / RFU MAPK11 (11762145_a_at) / Fold change /veh MAPK11 (11762145_a_at) / RFU FIZ1 (11724087_x_at) / Fold change /veh FIZ1 (11724087_x_at) / RFU OASL (11726364_x_at) / Fold change /veh OASL (11726364_x_at) / RFU SOX15 (11748057_x_at) / Fold change /veh SOX15 (11748057_x_at) / RFU CD79A (11719716_a_at) / Fold change /veh CD79A (11719716_a_at) / RFU HIST1H1D (11736915_at) / Fold change /veh HIST1H1D (11736915_at) / RFU CASKIN2 (11723855_a_at) / Fold change /veh CASKIN2 (11723855_a_at) / RFU LOC730098 (11760151_x_at) / Fold change /veh LOC730098 (11760151_x_at) / RFU OR4N2 (11742367_at) / Fold change /veh OR4N2 (11742367_at) / RFU PRRT2 (11749266_a_at) / Fold change /veh PRRT2 (11749266_a_at) / RFU SNX32 (11753110_a_at) / Fold change /veh SNX32 (11753110_a_at) / RFU CDHR5 (11726645_a_at) / Fold change /veh CDHR5 (11726645_a_at) / RFU RCAN1 (11760418_a_at) / Fold change /veh RCAN1 (11760418_a_at) / RFU FAM167A (11723789_a_at) / Fold change /veh FAM167A (11723789_a_at) / RFU FAM26E (11764081_at) / Fold change /veh FAM26E (11764081_at) / RFU ISYNA1 (11749810_s_at) / Fold change /veh ISYNA1 (11749810_s_at) / RFU ACY1 (11761880_at) / Fold change /veh ACY1 (11761880_at) / RFU 11764098_at / Fold change /veh 11764098_at / RFU SAMD14 (11745864_x_at) / Fold change /veh SAMD14 (11745864_x_at) / RFU NPB (11741838_a_at) / Fold change /veh NPB (11741838_a_at) / RFU TMPRSS6 (11731388_a_at) / Fold change /veh TMPRSS6 (11731388_a_at) / RFU KRTAP10-2 (11738614_at) / Fold change /veh KRTAP10-2 (11738614_at) / RFU ARHGAP8 /// PRR5-ARHGAP8 (11727945_x_at) / Fold change /veh ARHGAP8 /// PRR5-ARHGAP8 (11727945_x_at) / RFU KRTAP5-7 /// NADSYN1 (11734609_at) / Fold change /veh KRTAP5-7 /// NADSYN1 (11734609_at) / RFU RASL12 (11751679_a_at) / Fold change /veh RASL12 (11751679_a_at) / RFU CDKN2B (11736163_a_at) / Fold change /veh CDKN2B (11736163_a_at) / RFU PRF1 (11729649_at) / Fold change /veh PRF1 (11729649_at) / RFU, ZNF638 /// ZNF638-IT1 / Fold change vs veh, ZNF638 /// ZNF638-IT1 / RFU, PANK3 / Fold change vs veh, PANK3 / RFU, SH3YL1 / Fold change vs veh, SH3YL1 / RFU, ZEB2 / Fold change vs veh, ZEB2 / RFU, NRIP1 / Fold change vs veh, NRIP1 / RFU, PTTG1IP / Fold change vs veh, PTTG1IP / RFU, CAPN2 / Fold change vs veh, CAPN2 / RFU, MED14 / Fold change vs veh, MED14 / RFU, SNORA58 / Fold change vs veh, SNORA58 / RFU, C1orf63 / Fold change vs veh, C1orf63 / RFU, LRRFIP1 / Fold change vs veh, LRRFIP1 / RFU, NDUFAF7 / Fold change vs veh, NDUFAF7 / RFU, SLC12A2 / Fold change vs veh, SLC12A2 / RFU, IBTK / Fold change vs veh, IBTK / RFU, ESF1 / Fold change vs veh, ESF1 / Fold change vs veh, TMEM50B / RFU, TAOK1 / Fold change vs veh, TAOK1 / RFU, ACBD3 / Fold change vs veh, ACBD3 / RFU, TMA16 / Fold change vs veh, TMA16 / RFU, RWDD3 / Fold change vs veh, RWDD3 / RFU, BCAT1 / Fold change vs veh, BCAT1 / RFU, EDEM3 / Fold change vs veh, EDEM3 / RFU, TMEM33 / Fold change vs veh, TMEM33 / RFU, WDR75 / Fold change vs veh, WDR75 / RFU, AHCTF1 / Fold change vs veh, AHCTF1 / RFU, TFRC / Fold change vs veh, TFRC / RFU, ZDHHC17 / Fold change vs veh, ZDHHC17 / RFU, NOM1 / Fold change vs veh, NOM1 / RFU, ARL8B / Fold change vs veh, ARL8B / RFU, ZBTB11 / Fold change vs veh, ZBTB11 / RFU, TAMM41 / Fold change vs veh, TAMM41 / RFU, KIAA1704 /// LOC100996395 / Fold change vs veh, KIAA1704 /// LOC100996395 / RFU, ING1 / Fold change vs veh, ING1 / RFU, TRMT61B / Fold change vs veh, TRMT61B / RFU, FUBP3 / Fold change vs veh, FUBP3 / RFU, TP53 / Fold change vs veh, TP53 / RFU, TNKS2 / Fold change vs veh, TNKS2 / RFU, ZFP14 / Fold change vs veh, ZFP14 / RFU, ACTR2 / Fold change vs veh, ACTR2 / RFU, PPP3R1 / Fold change vs veh, PPP3R1 / RFU, PIK3R1 / Fold change vs veh, PIK3R1 / RFU, HNRNPA1 / Fold change vs veh, HNRNPA1 / RFU, RNF170 / Fold change vs veh, RNF170 / RFU, ZNF28 / Fold change vs veh, ZNF28 / RFU, RNGTT / Fold change vs veh, RNGTT / RFU, OGT / Fold change vs veh, OGT / RFU, BRD1 / Fold change vs veh, BRD1 / RFU, MARS / Fold change vs veh, MARS / RFU, ZNF655 / Fold change vs veh, ZNF655 / RFU, FAHD1 / Fold change vs veh, FAHD1 / RFU, BDP1 / Fold change vs veh, BDP1 / RFU, LRRCC1 / Fold change vs veh, LRRCC1 / RFU, ARID1A / Fold change vs veh, ARID1A / RFU, ZNF146 / Fold change vs veh, ZNF146 / RFU, ZNF330 / Fold change vs veh, ZNF330 / RFU, GPN3 / Fold change vs veh, GPN3 / RFU, C9orf123 / Fold change vs veh, C9orf123 / RFU, N4BP2L2 / Fold change vs veh, N4BP2L2 / RFU, ARFIP1 / Fold change vs veh, ARFIP1 / RFU, FAM179B / Fold change vs veh, FAM179B / RFU, BCL10 / Fold change vs veh, BCL10 / RFU, UHRF1BP1L / Fold change vs veh, UHRF1BP1L / RFU, BET1 / Fold change vs veh, BET1 / RFU, CNOT2 / Fold change vs veh, CNOT2 / RFU, ZNF268 / Fold change vs veh, ZNF268 / Fold change vs veh, ZNF507 / RFU, DGCR2 / Fold change vs veh, DGCR2 / RFU, WDSUB1 / Fold change vs veh, WDSUB1 / Fold change vs veh, HSP90B1 /// MIR3652 / RFU, ADSS / Fold change vs veh, ADSS / RFU, GK / Fold change vs veh, GK / RFU, ZNF148 / Fold change vs veh, ZNF148 / RFU, TAF9 / Fold change vs veh, TAF9 / RFU, SLC1A5 / Fold change vs veh, SLC1A5 / RFU, SLMO2 / Fold change vs veh, SLMO2 / RFU, ABCC4 / Fold change vs veh, ABCC4 / RFU, LOC101060439 /// RAP1B / Fold change vs veh, LOC101060439 /// RAP1B / RFU, RFX7 / Fold change vs veh, RFX7 / RFU, GTPBP10 / Fold change vs veh, GTPBP10 / RFU, CNEP1R1 / Fold change vs veh, CNEP1R1 / RFU, BIVM-ERCC5 /// ERCC5 / Fold change vs veh, BIVM-ERCC5 /// ERCC5 / RFU, ILF3 / Fold change vs veh, ILF3 / RFU 11762660_at / Fold change /veh 11762660_at / RFU VCAN (11757783_s_at) / Fold change /veh VCAN (11757783_s_at) / RFU DDX43 (11728927_at) / Fold change /veh DDX43 (11728927_at) / RFU KRT8 (11758188_x_at) / Fold change /veh KRT8 (11758188_x_at) / RFU NKD1 (11759106_at) / Fold change /veh NKD1 (11759106_at) / RFU SRD5A1 (11742802_a_at) / Fold change /veh SRD5A1 (11742802_a_at) / RFU TPSAB1 /// TPSB2 (11721975_s_at) / Fold change /veh TPSAB1 /// TPSB2 (11721975_s_at) / RFU GSTM3 (11746129_a_at) / Fold change /veh GSTM3 (11746129_a_at) / RFU IL23R (11737362_x_at) / Fold change /veh IL23R (11737362_x_at) / RFU TMEM51 (11727254_a_at) / Fold change /veh TMEM51 (11727254_a_at) / RFU PIWIL2 (11732686_x_at) / Fold change /veh PIWIL2 (11732686_x_at) / RFU ORM1 (11744905_x_at) / Fold change /veh ORM1 (11744905_x_at) / RFU CCDC152 (11743942_at) / Fold change /veh CCDC152 (11743942_at) / RFU ECM1 (11717891_a_at) / Fold change /veh ECM1 (11717891_a_at) / RFU IL23R (11748794_a_at) / Fold change /veh IL23R (11748794_a_at) / RFU TNFAIP8L3 (11732012_x_at) / Fold change /veh TNFAIP8L3 (11732012_x_at) / RFU MBOAT4 (11741988_at) / Fold change /veh MBOAT4 (11741988_at) / RFU 11764193_at / Fold change /veh 11764193_at / RFU TMEM53 (11763286_at) / Fold change /veh TMEM53 (11763286_at) / RFU MAGEB2 (11727129_at) / Fold change /veh MAGEB2 (11727129_at) / RFU TMEM200A (11744735_a_at) / Fold change /veh TMEM200A (11744735_a_at) / RFU CCDC152 (11751479_a_at) / Fold change /veh CCDC152 (11751479_a_at) / RFU FAM211A (11726209_a_at) / Fold change /veh FAM211A (11726209_a_at) / RFU RGS16 (11746705_a_at) / Fold change /veh RGS16 (11746705_a_at) / RFU VCAN (11755009_s_at) / Fold change /veh VCAN (11755009_s_at) / RFU RHOB (11743442_s_at) / Fold change /veh RHOB (11743442_s_at) / RFU RGS16 (11720943_a_at) / Fold change /veh RGS16 (11720943_a_at) / RFU RGS16 (11720944_at) / Fold change /veh RGS16 (11720944_at) / RFU, VPS4B / Fold change vs veh, VPS4B / RFU, CREB1 / Fold change vs veh, CREB1 / RFU, DNAJC13 / Fold change vs veh, DNAJC13 / RFU, GNAQ / Fold change vs veh, GNAQ / RFU, CDK5R1 / Fold change vs veh, CDK5R1 / RFU, ZRANB3 / Fold change vs veh, ZRANB3 / RFU, CUL4A / Fold change vs veh, CUL4A / RFU, CCNY / Fold change vs veh, CCNY / RFU, UFL1 / Fold change vs veh, UFL1 / RFU, COG3 / Fold change vs veh, COG3 / RFU, DIAPH2 / Fold change vs veh, DIAPH2 / RFU, SKA2 / Fold change vs veh, SKA2 / RFU, AFF3 / Fold change vs veh, AFF3 / RFU, LMF1 / Fold change vs veh, LMF1 / RFU, IPO11 / Fold change vs veh, IPO11 / RFU, DFFB / Fold change vs veh, DFFB / RFU, FOXP1 / Fold change vs veh, FOXP1 / RFU, CARD8 / Fold change vs veh, CARD8 / RFU, STRN3 / Fold change vs veh, STRN3 / RFU, ADK / Fold change vs veh, ADK / RFU, RASSF2 / Fold change vs veh, RASSF2 / RFU, WIPF1 / Fold change vs veh, WIPF1 / RFU, LARP1B / Fold change vs veh, LARP1B / RFU, RASA1 / Fold change vs veh, RASA1 / RFU, RB1 / Fold change vs veh, RB1 / RFU, PPFIA1 / Fold change vs veh, PPFIA1 / RFU, MAT2A / Fold change vs veh, MAT2A / RFU, CCT5 / Fold change vs veh, CCT5 / RFU, WDR92 / Fold change vs veh, WDR92 / RFU, CUX1 / Fold change vs veh, CUX1 / RFU, TTC7A / Fold change vs veh, TTC7A / RFU, TMEM135 / Fold change vs veh, TMEM135 / RFU, DEPTOR / Fold change vs veh, DEPTOR / RFU, CPM / Fold change vs veh, CPM / RFU, DNAJB6 / Fold change vs veh, DNAJB6 / RFU, CACNA2D3 / Fold change vs veh, CACNA2D3 / RFU, DTX4 / Fold change vs veh, DTX4 / RFU, TFCP2 / Fold change vs veh, TFCP2 / RFU, GMCL1 /// GMCL1P1 / Fold change vs veh, GMCL1 /// GMCL1P1 / RFU, AEBP2 / Fold change vs veh, AEBP2 / RFU, SNHG1 /// SNORD22 /// SNORD25 /// SNORD26 /// SNORD27 /// SNORD28 /// SNORD29 /// SNORD31 / Fold change vs veh, SNHG1 /// SNORD22 /// SNORD25 /// SNORD26 /// SNORD27 /// SNORD28 /// SNORD29 /// SNORD31 / Fold change (Aza/veh), C12orf56 (ProbeSet 11735607_a_at) / Fold change (ACY-1035/veh), C12orf56 (ProbeSet 11735607_a_at) / Fold change (Aza/veh), FGFR1OP (ProbeSet 11751329_s_at) / Fold change (ACY-1035/veh), FGFR1OP (ProbeSet 11751329_s_at) / Fold change (Aza/veh), VPS36 (ProbeSet 11739960_a_at) / Fold change (ACY-1035/veh), VPS36 (ProbeSet 11739960_a_at) / RFU SYPL1 (11715823_x_at) / Fold change /veh SYPL1 (11715823_x_at) / RFU IGFBP7 (11715501_s_at) / Fold change /veh IGFBP7 (11715501_s_at) / RFU REEP3 (11722064_at) / Fold change /veh REEP3 (11722064_at) / RFU IGLL1 (11728026_x_at) / Fold change /veh IGLL1 (11728026_x_at): dose or concentration left out as unconfirmed. Particulars: ProbeSet 11753055_s_at; LIST B.

Turning to `Nc1ccc(-c2cccs2)cc1NC(=O)c1ccc2c(c1)cc(C1CC1)n2CCN1CCOCC1` [ACY-1035], the “Fold change vs veh, LOC101060439 /// RAP1B” value is 0.99.

Source of the values: publication PMC5218480 (PLoS ONE, 2017).
